#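 Growth conditions: 96-well plates. Treatment: test compound, 48 hours, 5 concentrations. Analysis: linear interpolation between bracketing concentrations; unreached endpoints set to highest concentration. Here, GI50 denotes the concentration required for 50% inhibition of growth. TGI marks complete inhibition of growth.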
# Tests used:
# Experiment in all cases: DTP human tumour cell line panel, 48 h
# SNB-19 CNS = tested on: SNB-19 CNS
# SF-268 CNS = tested on: SF-268 CNS
# OVCAR-4 ovarian = tested on: OVCAR-4 ovarian
# K-562 leukemia = tested on: K-562 leukemia
# BT-549 breast = tested on: BT-549 breast
# RPMI-8226 leukemia = tested on: RPMI-8226 leukemia
# HT29 colon = tested on: HT29 colon
# HCT-116 colon = tested on: HCT-116 colon
# IGROV1 ovarian = tested on: IGROV1 ovarian
# OVCAR-3 ovarian = tested on: OVCAR-3 ovarian
# LOX IMVI melanoma = tested on: LOX IMVI melanoma
# SR leukemia = tested on: SR leukemia
# HOP-92 NSCLC = tested on: HOP-92 NSCLC
# DU-145 prostate = tested on: DU-145 prostate
# NCI-H226 lung = tested on: NCI-H226 lung
# HS 578T breast = tested on: HS 578T breast
# ACHN renal = tested on: ACHN renal
# OVCAR-8 ovarian = tested on: OVCAR-8 ovarian
# NCI-H460 lung = tested on: NCI-H460 lung
# HL-60(TB) leukemia = tested on: HL-60(TB) leukemia
# COLO 205 colon = tested on: COLO 205 colon
# SK-MEL-2 melanoma = tested on: SK-MEL-2 melanoma
# PC-3 prostate = tested on: PC-3 prostate
# MOLT-4 leukemia = tested on: MOLT-4 leukemia
# SF-539 CNS = tested on: SF-539 CNS
# HOP-62 NSCLC = tested on: HOP-62 NSCLC
# 786-0 renal = tested on: 786-0 renal
# SK-MEL-5 melanoma = tested on: SK-MEL-5 melanoma
# UACC-257 melanoma = tested on: UACC-257 melanoma
# HCT-15 colon = tested on: HCT-15 colon
# TK-10 renal = tested on: TK-10 renal
# OVCAR-5 ovarian = tested on: OVCAR-5 ovarian
# U251 CNS = tested on: U251 CNS
# UO-31 renal = tested on: UO-31 renal
# A549 NSCLC = tested on: A549 NSCLC
# EKVX NSCLC = tested on: EKVX NSCLC
# SK-OV-3 ovarian = tested on: SK-OV-3 ovarian
# SK-MEL-28 melanoma = tested on: SK-MEL-28 melanoma
# MDA-MB-435 = tested on: MDA-MB-435
# A498 renal = tested on: A498 renal
# SNB-75 CNS = tested on: SNB-75 CNS
# NCI/ADR-RES ovarian = tested on: NCI/ADR-RES ovarian
# M14 melanoma = tested on: M14 melanoma
# MALME-3M melanoma = tested on: MALME-3M melanoma
# HCC-2998 colon = tested on: HCC-2998 colon
# T-47D breast = tested on: T-47D breast
# MDA-MB-231 breast = tested on: MDA-MB-231 breast
# SW-620 colon = tested on: SW-620 colon
# SF-295 CNS = tested on: SF-295 CNS
# KM12 colon = tested on: KM12 colon
# NCI-H522 lung = tested on: NCI-H522 lung
# MCF7 breast = tested on: MCF7 breast
# SN12C renal = tested on: SN12C renal
# RXF 393 renal = tested on: RXF 393 renal
# CAKI-1 renal = tested on: CAKI-1 renal
# UACC-62 melanoma = tested on: UACC-62 melanoma
structure (smiles),measurement,setting,value
CC(=O)Oc1ccccc1C(=O)Nc1ccc(C(=O)/C=C/c2ccncc2)cc1,GI50,SNB-19 CNS,> 100 µM
same,TGI,SNB-19 CNS,> 100 µM
same,GI50,SF-268 CNS,61.8 µM
same,TGI,SF-268 CNS,> 100 µM
same,GI50,OVCAR-4 ovarian,85.8 µM
same,TGI,OVCAR-4 ovarian,> 100 µM
same,GI50,K-562 leukemia,22.7 µM
same,TGI,K-562 leukemia,> 100 µM
same,GI50,BT-549 breast,25.1 µM
same,TGI,BT-549 breast,> 100 µM
same,GI50,RPMI-8226 leukemia,15 µM
same,TGI,RPMI-8226 leukemia,49.2 µM
same,GI50,HT29 colon,30.5 µM
same,TGI,HT29 colon,> 100 µM
same,GI50,HCT-116 colon,13.3 µM
same,TGI,HCT-116 colon,28.2 µM
same,GI50,IGROV1 ovarian,51.7 µM
same,TGI,IGROV1 ovarian,> 100 µM
same,GI50,OVCAR-3 ovarian,36.1 µM
same,TGI,OVCAR-3 ovarian,> 100 µM
same,GI50,LOX IMVI melanoma,12.8 µM
same,TGI,LOX IMVI melanoma,34.8 µM
same,GI50,SR leukemia,22.4 µM
same,TGI,SR leukemia,89.5 µM
same,GI50,HOP-92 NSCLC,4.6 µM
same,TGI,HOP-92 NSCLC,> 100 µM
same,GI50,DU-145 prostate,58.2 µM
same,TGI,DU-145 prostate,> 100 µM
same,GI50,NCI-H226 lung,> 100 µM
same,TGI,NCI-H226 lung,> 100 µM
same,GI50,HS 578T breast,57.4 µM
same,TGI,HS 578T breast,> 100 µM
same,GI50,ACHN renal,59.7 µM
same,TGI,ACHN renal,> 100 µM
same,GI50,OVCAR-8 ovarian,> 100 µM
same,TGI,OVCAR-8 ovarian,> 100 µM
same,GI50,NCI-H460 lung,36.6 µM
same,TGI,NCI-H460 lung,> 100 µM
same,GI50,HL-60(TB) leukemia,34.8 µM
same,TGI,HL-60(TB) leukemia,> 100 µM
same,GI50,COLO 205 colon,38.1 µM
same,TGI,COLO 205 colon,> 100 µM
same,GI50,SK-MEL-2 melanoma,> 100 µM
same,TGI,SK-MEL-2 melanoma,> 100 µM
same,GI50,PC-3 prostate,49.8 µM
same,TGI,PC-3 prostate,> 100 µM
same,GI50,MOLT-4 leukemia,40.2 µM
same,TGI,MOLT-4 leukemia,> 100 µM
same,GI50,SF-539 CNS,30.5 µM
same,TGI,SF-539 CNS,> 100 µM
same,GI50,HOP-62 NSCLC,> 100 µM
same,TGI,HOP-62 NSCLC,> 100 µM
same,GI50,786-0 renal,> 100 µM
same,TGI,786-0 renal,> 100 µM
same,GI50,SK-MEL-5 melanoma,> 100 µM
same,TGI,SK-MEL-5 melanoma,> 100 µM
same,GI50,UACC-257 melanoma,> 100 µM
same,TGI,UACC-257 melanoma,> 100 µM
same,GI50,HCT-15 colon,25.7 µM
same,TGI,HCT-15 colon,> 100 µM
same,GI50,TK-10 renal,> 100 µM
same,TGI,TK-10 renal,> 100 µM
same,GI50,OVCAR-5 ovarian,> 100 µM
same,TGI,OVCAR-5 ovarian,> 100 µM
same,GI50,U251 CNS,35.6 µM
same,TGI,U251 CNS,> 100 µM
same,GI50,UO-31 renal,63.2 µM
same,TGI,UO-31 renal,> 100 µM
same,GI50,A549 NSCLC,> 100 µM
same,TGI,A549 NSCLC,> 100 µM
same,GI50,EKVX NSCLC,> 100 µM
same,TGI,EKVX NSCLC,> 100 µM
same,GI50,SK-OV-3 ovarian,> 100 µM
same,TGI,SK-OV-3 ovarian,> 100 µM
same,GI50,SK-MEL-28 melanoma,> 100 µM
same,TGI,SK-MEL-28 melanoma,> 100 µM
same,GI50,MDA-MB-435,27.8 µM
same,TGI,MDA-MB-435,> 100 µM
same,GI50,A498 renal,> 100 µM
same,TGI,A498 renal,> 100 µM
same,GI50,SNB-75 CNS,> 100 µM
same,TGI,SNB-75 CNS,> 100 µM
same,GI50,NCI/ADR-RES ovarian,> 100 µM
same,TGI,NCI/ADR-RES ovarian,> 100 µM
same,GI50,M14 melanoma,40.8 µM
same,TGI,M14 melanoma,> 100 µM
same,GI50,MALME-3M melanoma,> 100 µM
same,TGI,MALME-3M melanoma,> 100 µM
same,GI50,HCC-2998 colon,22.2 µM
same,TGI,HCC-2998 colon,55.2 µM
same,GI50,T-47D breast,60 µM
same,TGI,T-47D breast,> 100 µM
same,GI50,MDA-MB-231 breast,> 100 µM
same,TGI,MDA-MB-231 breast,> 100 µM
same,GI50,SW-620 colon,24.3 µM
same,TGI,SW-620 colon,> 100 µM
same,GI50,SF-295 CNS,> 100 µM
same,TGI,SF-295 CNS,> 100 µM
same,GI50,KM12 colon,25.9 µM
same,TGI,KM12 colon,> 100 µM
same,GI50,NCI-H522 lung,> 100 µM
same,TGI,NCI-H522 lung,> 100 µM
same,GI50,MCF7 breast,6.13 µM
same,TGI,MCF7 breast,> 100 µM
same,GI50,SN12C renal,55.3 µM
same,TGI,SN12C renal,> 100 µM
same,GI50,RXF 393 renal,24.4 µM
same,TGI,RXF 393 renal,98.9 µM
same,GI50,CAKI-1 renal,42.8 µM
same,TGI,CAKI-1 renal,> 100 µM
same,GI50,UACC-62 melanoma,> 100 µM
same,TGI,UACC-62 melanoma,> 100 µM

# From PubChem BioAssay (NCI)
